Laboratory results published in the supplement of paper PMC4862054.

Columns and labels:
Settings in all cases: incubation time: 72 h
MDA-MB-453 [1] = test: normalised viability (% of control), CellTiter-Blue; higher = more viable cells (about 100 = DMSO control)
Experimental: (§1)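 DSRT, CellTiter-Blue viability, 72 h incubation. Signal is normalised to DMSO and benzethonium chloride controls. Value is the normalised response at dose 6.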

CAL-51 [2] = test: as above
Experimental: as §1

HDQ-P1 [3] = test: as above
Experimental: as §1

CAL-85-1 [4] = test: as above
Experimental: as §1

CAL-148 [5] = test: as above
Experimental: as §1

DU-4475 [6] = test: as above
Experimental: as §1

CAL-51 [7] = test: as above; remark: listed apart in the source
Experimental: (§2)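 DSRT, CellTiter-Blue viability, 72 h incubation. Signal is normalised to DMSO and benzethonium chloride controls. Value is the normalised response at dose 8.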

HDQ-P1 [8] = test: as above; remark: listed apart in the source
Experimental: as §2

MFM-223 = test: drug sensitivity score (DSS), CellTox Green (DSS (AUC-based score)); higher = stronger drug effect (viability inhibition or cytotoxicity); extreme values may be limits of the assay
Outline: (§3)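 In 384-well plates, compound was laid out at 5 concentrations in 10-fold steps over a 10,000-fold range specific to each compound, and breast cancer cell lines were seeded on top in 20 µl suspension for a 72 h incubation. CellTox Green fluorescence and then CellTiter-Glo luminescence were read, and each plate was normalised to 0.1 % DMSO and a positive kill control. The drug sensitivity score was calculated from the area under the fitted dose-response curve.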

MDA-MB-453 [9] = test: as above
Outline: as §3

CAL-51 [10] = test: as above
Outline: as §3

BT-549 = test: as above
Outline: as §3

HDQ-P1 [11] = test: as above
Outline: as §3

BT-474 = test: as above
Outline: as §3

MDA-MB-468 = test: as above
Outline: as §3

CAL-85-1 [12] = test: as above
Outline: as §3

HCC1937 = test: as above
Outline: as §3

MDA-MB-231 = test: as above
Outline: as §3

CAL-148 [13] = test: as above
Outline: as §3

HCC1599 = test: as above
Outline: as §3

CAL-120 = test: as above
Outline: as §3

MCF-10A = test: as above
Outline: as §3

MDA-MB-436 = test: as above
Outline: as §3

DU-4475 [14] = test: as above
Outline: as §3

HCC1143 = test: as above
Outline: as §3

Hs578T = test: as above
Outline: as §3

SMILES	drug sensitivity score (MFM-223)	drug sensitivity score (MDA-MB-453 [9])	drug sensitivity score (CAL-51 [10])	drug sensitivity score (BT-549)	drug sensitivity score (HDQ-P1 [11])	drug sensitivity score (BT-474)	drug sensitivity score (MDA-MB-468)	drug sensitivity score (CAL-85-1 [12])	drug sensitivity score (HCC1937)	drug sensitivity score (MDA-MB-231)	drug sensitivity score (CAL-148 [13])	drug sensitivity score (HCC1599)	drug sensitivity score (CAL-120)	drug sensitivity score (MCF-10A)	drug sensitivity score (MDA-MB-436)	drug sensitivity score (DU-4475 [14])	drug sensitivity score (HCC1143)	normalised viability (MDA-MB-453 [1]; 300 nM)	normalised viability (CAL-51 [2]; 300 nM)	drug sensitivity score (Hs578T)	further results
C=CC(=O)N1CCC[C@@H](n2nc(-c3ccc(Oc4ccccc4)cc3)c3c(N)ncnc32)C1																					normalised viability (MDA-MB-453 [1]; 30 nM): 50.2%; normalised viability (CAL-51 [2]; 30 nM): 92.2%; normalised viability (HDQ-P1 [3]; 30 nM): 107%; normalised viability (CAL-85-1 [4]; 30 nM): 96%; normalised viability (CAL-148 [5]; 30 nM): 44.8%; normalised viability (DU-4475 [6]; 30 nM): 84.4%; normalised viability (CAL-51 [7]; 300 nM): 85.5%; normalised viability (HDQ-P1 [8]; 300 nM): 87.5%
CC(=O)Nc1cccc(-n2c(=O)n(C3CC3)c(=O)c3c(Nc4ccc(I)cc4F)n(C)c(=O)c(C)c32)c1																					normalised viability (MDA-MB-453 [1]; 7.5 nM): 99.6%; normalised viability (CAL-51 [2]; 7.5 nM): 81.6%; normalised viability (HDQ-P1 [3]; 7.5 nM): 54.1%; normalised viability (CAL-85-1 [4]; 7.5 nM): 76.2%; normalised viability (CAL-148 [5]; 7.5 nM): 90.7%; normalised viability (DU-4475 [6]; 7.5 nM): 0.58%; normalised viability (CAL-51 [7]; 75 nM): 73.3%; normalised viability (HDQ-P1 [8]; 75 nM): 47.9%
CCc1cncnc1N1CCN(Cc2nc3ccc(C(F)(F)F)cc3[nH]2)CC1	0	0	0	0	0	0	0	0	0	0	0	0	0	0	0	0	0	101%	88.1%		normalised viability (HDQ-P1 [3]; 300 nM): 105%; normalised viability (CAL-85-1 [4]; 300 nM): 89.8%; normalised viability (CAL-148 [5]; 300 nM): 107%; normalised viability (DU-4475 [6]; 300 nM): 105%; normalised viability (CAL-51 [7]; 3000 nM): 88.9%; normalised viability (HDQ-P1 [8]; 3000 nM): 108%
Cc1cnc(NC(=O)Nc2cc(Br)c(C)cc2OC[C@@H]2CNCCO2)cn1																					normalised viability (MDA-MB-453 [1]; 30 nM): 94.3%; normalised viability (CAL-51 [2]; 30 nM): 95.7%; normalised viability (HDQ-P1 [3]; 30 nM): 68.4%; normalised viability (CAL-85-1 [4]; 30 nM): 92%; normalised viability (CAL-148 [5]; 30 nM): 91.7%; normalised viability (DU-4475 [6]; 30 nM): 106%; normalised viability (CAL-51 [7]; 300 nM): 103%; normalised viability (HDQ-P1 [8]; 300 nM): 96.2%
NCCCNCCSP(=O)(O)O [Amifostine]																		105%	103%		normalised viability (HDQ-P1 [3]; 300 nM): 63.9%; normalised viability (CAL-85-1 [4]; 300 nM): 93.8%; normalised viability (CAL-148 [5]; 300 nM): 95.2%; normalised viability (DU-4475 [6]; 300 nM): 87.7%; normalised viability (CAL-51 [7]; 3000 nM): 107%; normalised viability (HDQ-P1 [8]; 3000 nM): 94.8%
CC[C@H](Nc1ncnc2[nH]cnc12)c1nc2cccc(F)c2c(=O)n1-c1ccccc1 [CAL-101]																		86%	85.3%		normalised viability (HDQ-P1 [3]; 300 nM): 58%; normalised viability (CAL-85-1 [4]; 300 nM): 81.9%; normalised viability (CAL-148 [5]; 300 nM): 90.4%; normalised viability (DU-4475 [6]; 300 nM): 91.1%; normalised viability (CAL-51 [7]; 3000 nM): 89.3%; normalised viability (HDQ-P1 [8]; 3000 nM): 80.7%
O=C(O)CCCCC(CCSCc1ccccc1)SCc1ccccc1 (stereo not given) [CPI-613]	0	0	0	0	0	0	0	0.118	0	0	0	0	0	0	0	0	0			0	
Cc1ccc(-c2cc(C(F)(F)F)nn2-c2ccc(S(N)(=O)=O)cc2)cc1 [Celecoxib]	0	0	0	0	0	0	0	0	0	0	0	0	0	0	0	0	0	92.5%	97%		normalised viability (HDQ-P1 [3]; 300 nM): 72.2%; normalised viability (CAL-85-1 [4]; 300 nM): 70.2%; normalised viability (CAL-148 [5]; 300 nM): 88%; normalised viability (DU-4475 [6]; 300 nM): 96%; normalised viability (CAL-51 [7]; 3000 nM): 99.5%; normalised viability (HDQ-P1 [8]; 3000 nM): 83.9%
O=C(/C=C/c1cccnc1)NCCCCC1CCN(C(=O)c2ccccc2)CC1 [Daporinad]	0	0	0	0	0	0	0.89	0	10.4	0	0	0	0	0	0	0	0			0	
O=C(/C=C/c1cccnc1)NCCCCC1CCN(C(=O)c2ccccc2)CC1 [FK-866]																					normalised viability (MDA-MB-453 [1]; 30 nM): 23.8%; normalised viability (CAL-51 [2]; 30 nM): 48.8%; normalised viability (HDQ-P1 [3]; 30 nM): 64.3%; normalised viability (CAL-85-1 [4]; 30 nM): 72.4%; normalised viability (CAL-148 [5]; 30 nM): 73.7%; normalised viability (DU-4475 [6]; 30 nM): 31.4%; normalised viability (CAL-51 [7]; 300 nM): 34.6%; normalised viability (HDQ-P1 [8]; 300 nM): 51.6%
CC[C@H](Nc1ncnc2[nH]cnc12)c1nc2cccc(F)c2c(=O)n1-c1ccccc1 [GS-1101]	0	0	0	0	0	0	3.82	0	0	4.13	0	0	0	0	0	0	0			0	
C=CC(=O)N1CCC[C@@H](n2nc(-c3ccc(Oc4ccccc4)cc3)c3c(N)ncnc32)C1 [Ibrutinib]	0	1.03	0.377	0	0.282	2.25	0	4.71	0	0	0	0	0	0	0	0	0			0	
CCN(CC)CCCC(C)Nc1c2ccc(Cl)cc2nc2ccc(OC)cc12 (stereo not given) [Mepacrine]	0	0	0	0	0	0	0.235	0	0	5	0	0	0	0	0	0	0	101%	104%		normalised viability (MDA-MB-453 [1]; 29.7 nM): 103%; normalised viability (CAL-51 [2]; 29.7 nM): 86.1%; normalised viability (HDQ-P1 [3]; 29.7 nM): 117%; normalised viability (HDQ-P1 [3]; 300 nM): 109%; normalised viability (CAL-85-1 [4]; 29.7 nM): 101%; normalised viability (CAL-85-1 [4]; 300 nM): 100%; normalised viability (CAL-148 [5]; 29.7 nM): 105%; normalised viability (CAL-148 [5]; 300 nM): 102%; normalised viability (DU-4475 [6]; 29.7 nM): 88.3%; normalised viability (DU-4475 [6]; 300 nM): 80.9%; normalised viability (CAL-51 [7]; 297 nM): 93.3%; normalised viability (CAL-51 [7]; 3000 nM): 77.8%; normalised viability (HDQ-P1 [8]; 297 nM): 56.8%; normalised viability (HDQ-P1 [8]; 3000 nM): 42.9%
C=CCc1cccc(/C=N/NC(=O)CN2CCN(Cc3ccccc3)CC2)c1O [PAC-1]	0	0	4.72	8.49	0	1	0	0	0	0	0	0	0	0	0	0	0			0	
CC[C@H](C)C(=O)O[C@H]1C[C@H](O)C=C2C=C[C@H](C)[C@H](CC[C@@H](O)C[C@@H](O)CC(=O)O)[C@H]21 [Pravastatin]	0	0	5.33	0.618	0	0	2.44	0	0	4.52	0	0	0	2.17	32.8	0	0			0	
Cc1cnc(NC(=O)Nc2cc(Br)c(C)cc2OC[C@@H]2CNCCO2)cn1 [Rabusertib]	0	0	0	0	0	0	0	0	0	0	0.673	0	0	0	0	0	0			0	
CNC(=O)c1cc(Oc2ccc(NC(=O)Nc3cc(C(C)(C)C)nn3-c3ccc4ncccc4c3)c(F)c2)ccn1 [Rebastinib]	0	0	0	0	4.01	0	0	2.09	0	0	0	0	0	0	0	0	0			0	
C1CN1c1nc(N2CC2)nc(N2CC2)n1 [Triethylenemelamine]																		108%	105%		normalised viability (HDQ-P1 [3]; 300 nM): 105%; normalised viability (CAL-85-1 [4]; 300 nM): 99%; normalised viability (CAL-148 [5]; 300 nM): 118%; normalised viability (DU-4475 [6]; 300 nM): 97.2%; normalised viability (CAL-51 [7]; 3000 nM): 109%; normalised viability (HDQ-P1 [8]; 3000 nM): 107%
COc1cc2c(NC3CCN(C(C)C)CC3)nc(C3CCCCC3)nc2cc1OCCCN1CCCC1 [UNC0638]	3.4	6.8	9.03	8.31	1.42	7.51	7.09	6.93	7.61	9.02	6.35	1.89	6.94	7.41	4.24	0	0				
